Results published in US12343326B2, “Psychoactive medicines and their use for treating psychiatric and neurological conditions and disorders” (Transcend Therapeutics, Inc., priority 2021, dated 2025).
Read-outs that look alike come from different tables or passages of the source.

Key:
[1] = tested on: rats; assay: Open field test (OFT); format: in vivo, rat; settings: for time spent in the center of the open field vs. vehicle: single dose 5 or 15 mg/kg IP (text), 5-30 mg/kg (FIG. 11A), 30 minutes before testing
Experimental: This behavioral assay, also widely used as an anxiety paradigm, capitalizes on a rodent's innate fear of brightly lit open spaces, which are assumed to induce fear or anxiety. Rodents spend more time hugging the walls of the open field during the test, and these effects correlate to underlying brain regions and mechanisms.
Method: Consecutive beam breaks and/or video-tracking of time spent in the center versus periphery of the open field are measured. Also measured are parameters such as distance traveled and ambulatory activity (horizontal and vertical) for the duration of the test session.
The open field test (OFT) capitalizes on a rodent's innate fear of open spaces to assess anxiety-like behavior. More time spent in the center of an open field reflects an anxiolytic (anti-anxiety) effect.
Locomotor activity was also measured in the OFT.
To investigate whether MBDB has an anti-anxiety (anxiolytic) effect, rats were dosed with MBDB (0.5-30 mg/kg, IP) or vehicle (saline) and 30-minutes later were tested in the open field for 30 minutes. This anxiety test capitalizes on a rodents' innate fear of wide-open spaces and propensity to hug the walls when placed into the open field. Therefore, a drug that increases the time spent in the center of the open field has anxiolytic activity and predicts utility for treating anxiety in humans.

[2] = cited from earlier work
[3] = molecular target: 168 GPCRs (Homo sapiens, UniProt P34998); assay: β-arrestin based GPCR screen (PathHunter / GPCRmax), antagonist mode
Chain of 168 GPCRs (Homo sapiens, UniProt P34998) (P34998 24-415): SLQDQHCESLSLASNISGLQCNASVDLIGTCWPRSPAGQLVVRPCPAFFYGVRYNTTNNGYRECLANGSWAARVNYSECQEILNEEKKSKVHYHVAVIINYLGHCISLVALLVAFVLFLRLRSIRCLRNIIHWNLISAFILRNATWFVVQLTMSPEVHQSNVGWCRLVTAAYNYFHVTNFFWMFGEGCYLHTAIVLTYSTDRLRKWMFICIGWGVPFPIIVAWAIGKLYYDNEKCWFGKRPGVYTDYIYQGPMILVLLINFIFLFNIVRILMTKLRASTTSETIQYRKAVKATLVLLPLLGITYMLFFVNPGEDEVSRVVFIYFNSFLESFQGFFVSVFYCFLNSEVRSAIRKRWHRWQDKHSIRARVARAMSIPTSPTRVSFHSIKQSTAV

[4] = molecular target: 168 GPCRs (Homo sapiens, UniProt P21730); assay: as above; settings: C5AR1, Antagonist
Chain of 168 GPCRs (Homo sapiens, UniProt P21730) (P21730 whole entry): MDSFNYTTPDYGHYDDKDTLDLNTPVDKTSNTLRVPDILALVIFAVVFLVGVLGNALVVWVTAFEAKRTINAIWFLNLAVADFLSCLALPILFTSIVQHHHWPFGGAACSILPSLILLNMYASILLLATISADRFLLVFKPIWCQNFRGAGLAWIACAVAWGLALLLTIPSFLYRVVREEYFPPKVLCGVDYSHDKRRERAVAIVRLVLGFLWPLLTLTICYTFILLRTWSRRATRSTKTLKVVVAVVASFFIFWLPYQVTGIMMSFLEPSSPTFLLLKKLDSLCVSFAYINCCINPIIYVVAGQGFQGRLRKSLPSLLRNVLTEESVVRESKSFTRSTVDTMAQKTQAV

[5] = molecular target: 168 GPCRs (Homo sapiens, UniProt P49683); assay: as above; settings: PRLHR
Chain of 168 GPCRs (Homo sapiens, UniProt P49683) (P49683 whole entry): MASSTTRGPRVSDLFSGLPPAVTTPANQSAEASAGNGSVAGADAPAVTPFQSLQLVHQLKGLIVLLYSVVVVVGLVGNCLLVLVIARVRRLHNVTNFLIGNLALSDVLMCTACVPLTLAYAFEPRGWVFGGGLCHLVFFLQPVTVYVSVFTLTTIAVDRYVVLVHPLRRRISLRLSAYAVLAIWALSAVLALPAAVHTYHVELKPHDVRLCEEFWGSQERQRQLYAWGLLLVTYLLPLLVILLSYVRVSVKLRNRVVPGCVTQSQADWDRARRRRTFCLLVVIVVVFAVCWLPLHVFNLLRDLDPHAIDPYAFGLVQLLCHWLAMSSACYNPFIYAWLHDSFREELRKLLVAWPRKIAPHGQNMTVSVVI

[6] = molecular target: 168 GPCRs (Homo sapiens, UniProt P32241); assay: as above
Chain of 168 GPCRs (Homo sapiens, UniProt P32241) (P32241 31-457): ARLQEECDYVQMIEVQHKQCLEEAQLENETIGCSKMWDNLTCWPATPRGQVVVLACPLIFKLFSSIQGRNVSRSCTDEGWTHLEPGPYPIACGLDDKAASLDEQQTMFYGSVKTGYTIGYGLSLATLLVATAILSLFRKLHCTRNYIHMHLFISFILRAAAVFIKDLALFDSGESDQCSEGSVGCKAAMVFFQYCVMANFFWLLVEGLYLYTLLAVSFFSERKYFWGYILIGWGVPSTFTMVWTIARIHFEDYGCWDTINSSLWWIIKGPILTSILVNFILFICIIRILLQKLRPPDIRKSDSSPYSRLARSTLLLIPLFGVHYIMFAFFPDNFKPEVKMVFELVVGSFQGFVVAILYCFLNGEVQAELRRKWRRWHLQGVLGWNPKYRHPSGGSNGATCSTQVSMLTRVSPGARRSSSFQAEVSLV

[7] = molecular target: 168 GPCRs (Homo sapiens, UniProt Q16602); assay: as above; settings: Antagonist
Chain of 168 GPCRs (Homo sapiens, UniProt Q16602) (Q16602 23-461): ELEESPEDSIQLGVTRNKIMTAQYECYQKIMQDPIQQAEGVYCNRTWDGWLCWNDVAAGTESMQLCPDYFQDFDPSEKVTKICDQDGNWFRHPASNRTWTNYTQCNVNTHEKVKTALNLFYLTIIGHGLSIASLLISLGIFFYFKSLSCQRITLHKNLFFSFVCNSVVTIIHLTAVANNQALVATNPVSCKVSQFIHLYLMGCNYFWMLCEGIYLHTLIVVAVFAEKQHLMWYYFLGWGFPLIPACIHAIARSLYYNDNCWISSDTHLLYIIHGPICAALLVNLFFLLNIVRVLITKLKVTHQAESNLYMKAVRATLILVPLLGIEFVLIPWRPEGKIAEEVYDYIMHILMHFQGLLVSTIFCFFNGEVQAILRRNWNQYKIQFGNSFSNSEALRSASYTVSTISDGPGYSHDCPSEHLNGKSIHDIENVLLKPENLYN

[8] = molecular target: 168 GPCRs (Homo sapiens, UniProt Q9HC97); assay: as above
Chain of 168 GPCRs (Homo sapiens, UniProt Q9HC97) (Q9HC97 whole entry): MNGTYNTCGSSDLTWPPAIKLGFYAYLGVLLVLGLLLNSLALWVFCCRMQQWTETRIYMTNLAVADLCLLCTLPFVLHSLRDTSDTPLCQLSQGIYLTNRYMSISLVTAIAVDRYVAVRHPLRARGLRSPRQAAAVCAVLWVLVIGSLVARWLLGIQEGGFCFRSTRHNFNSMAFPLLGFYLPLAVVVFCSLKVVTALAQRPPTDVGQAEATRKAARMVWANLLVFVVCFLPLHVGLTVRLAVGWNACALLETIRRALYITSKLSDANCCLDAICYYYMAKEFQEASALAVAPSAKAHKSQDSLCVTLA

[9] = molecular target: 168 GPCRs (Homo sapiens, UniProt P51684); assay: as above; settings: CCR6, Antagonist
Chain of 168 GPCRs (Homo sapiens, UniProt P51684) (P51684 whole entry): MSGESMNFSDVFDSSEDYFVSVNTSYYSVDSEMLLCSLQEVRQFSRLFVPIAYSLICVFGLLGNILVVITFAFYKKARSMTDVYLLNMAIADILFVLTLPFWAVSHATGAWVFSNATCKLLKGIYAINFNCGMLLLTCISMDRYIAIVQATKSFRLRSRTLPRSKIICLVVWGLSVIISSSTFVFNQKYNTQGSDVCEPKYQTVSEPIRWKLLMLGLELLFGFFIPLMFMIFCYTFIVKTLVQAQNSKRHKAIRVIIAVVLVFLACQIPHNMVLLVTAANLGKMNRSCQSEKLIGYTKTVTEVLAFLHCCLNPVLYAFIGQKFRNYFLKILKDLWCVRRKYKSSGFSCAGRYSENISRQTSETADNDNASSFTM

[10] = molecular target: 168 GPCRs (Homo sapiens, UniProt P48145); assay: as above
Chain of 168 GPCRs (Homo sapiens, UniProt P48145) (P48145 whole entry): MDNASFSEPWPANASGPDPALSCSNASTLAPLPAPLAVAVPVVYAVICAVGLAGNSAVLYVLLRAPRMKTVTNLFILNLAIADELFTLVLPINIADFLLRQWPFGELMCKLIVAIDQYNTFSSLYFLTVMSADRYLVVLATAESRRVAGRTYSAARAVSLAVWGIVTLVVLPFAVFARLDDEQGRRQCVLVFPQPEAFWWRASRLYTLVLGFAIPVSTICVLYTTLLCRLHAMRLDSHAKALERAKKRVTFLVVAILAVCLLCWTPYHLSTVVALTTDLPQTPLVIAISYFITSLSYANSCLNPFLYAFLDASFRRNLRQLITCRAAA

[11] = molecular target: 168 GPCRs (Homo sapiens, UniProt P47900); assay: as above
Chain of 168 GPCRs (Homo sapiens, UniProt P47900) (P47900 whole entry): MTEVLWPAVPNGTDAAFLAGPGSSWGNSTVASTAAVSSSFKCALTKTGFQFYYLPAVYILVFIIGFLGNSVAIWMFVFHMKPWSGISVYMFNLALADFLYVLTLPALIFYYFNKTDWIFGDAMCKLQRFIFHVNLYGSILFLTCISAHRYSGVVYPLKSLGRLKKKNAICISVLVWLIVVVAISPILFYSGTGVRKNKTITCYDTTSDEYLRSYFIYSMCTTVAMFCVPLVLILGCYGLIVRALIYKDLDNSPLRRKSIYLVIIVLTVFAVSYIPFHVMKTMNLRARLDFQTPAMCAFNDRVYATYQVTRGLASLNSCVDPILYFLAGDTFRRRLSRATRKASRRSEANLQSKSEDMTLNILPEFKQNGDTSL

[12] = molecular target: T1, 5HT2C receptor (Homo sapiens, UniProt P28335); assay: GPCRmax screen, agonist mode; format: cell-based
T1 construct: beta-galactosidase enzyme fragment (PathHunter complementation tag); host or cells: PathHunter cell lines
T1 sequence (P28335 33-458): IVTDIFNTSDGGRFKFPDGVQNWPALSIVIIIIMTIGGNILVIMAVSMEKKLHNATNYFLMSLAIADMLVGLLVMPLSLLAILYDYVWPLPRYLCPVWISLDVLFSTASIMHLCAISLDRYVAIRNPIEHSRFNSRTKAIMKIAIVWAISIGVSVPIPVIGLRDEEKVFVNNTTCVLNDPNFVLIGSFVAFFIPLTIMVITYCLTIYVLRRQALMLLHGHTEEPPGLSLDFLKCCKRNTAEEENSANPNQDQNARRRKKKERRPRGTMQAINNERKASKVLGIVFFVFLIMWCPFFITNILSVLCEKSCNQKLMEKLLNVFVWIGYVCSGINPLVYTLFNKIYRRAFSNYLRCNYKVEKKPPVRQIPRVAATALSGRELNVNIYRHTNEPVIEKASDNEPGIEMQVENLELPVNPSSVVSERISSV

[13] = molecular target: T2, 5HT2A receptor (Homo sapiens, UniProt P28223); assay: GPCRmax screen, antagonist mode; format: cell-based
T2 construct: beta-galactosidase enzyme fragment (PathHunter complementation tag); host or cells: PathHunter cell lines
T2 sequence (P28223 whole entry, the tested form may be a part): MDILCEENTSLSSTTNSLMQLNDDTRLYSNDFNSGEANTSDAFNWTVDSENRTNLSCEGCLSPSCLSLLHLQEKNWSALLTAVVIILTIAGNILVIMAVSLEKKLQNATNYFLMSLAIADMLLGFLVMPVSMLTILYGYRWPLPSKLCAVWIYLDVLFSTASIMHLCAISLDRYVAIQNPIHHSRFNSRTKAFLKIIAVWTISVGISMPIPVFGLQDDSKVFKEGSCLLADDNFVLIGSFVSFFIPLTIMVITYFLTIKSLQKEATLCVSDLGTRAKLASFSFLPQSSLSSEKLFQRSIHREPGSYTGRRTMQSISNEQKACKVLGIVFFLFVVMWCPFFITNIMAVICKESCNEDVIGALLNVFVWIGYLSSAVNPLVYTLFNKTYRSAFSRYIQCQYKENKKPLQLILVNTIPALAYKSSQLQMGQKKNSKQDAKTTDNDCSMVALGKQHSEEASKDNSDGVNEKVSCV

[14] = tested on: C57BL/6J mice; assay: Mouse head-twitch response (HTR) test; format: in vivo; settings: i.p., any dose tested, HTR measured for 10 minutes
Experimental: Head twitch response (HTR) was evaluated using C57BL/6J mice (ages 7-10 weeks), Mice were ear tagged at least three days after arrival to the animal facility and allowed to rest for at least three days before behavioral testing. Small magnets (SuperMagnetMan—N45 magnet 3 mm diameter, 0.5 mm thickness) were glued to ear tags (Stoelting—La Pias Aluminum Ear Tags) at least two days before mice were ear tagged. The experimental setup was adapted from Gonzales-Maeso (de la Fuente Revenga et al., 2019) and Kwan (Jefferson et al., 2022; Savalia et al., 2021), including experimental apparatus and MATLAB code for analysis.
Doses were randomly assigned, and age-matched controls were injected with vehicle and randomly interspersed with drug conditions. At least three animals per sex were used for each drug dose and condition. If animals were used in multiple HTR experiments, experimental sessions took place at least one week apart. Two animals were run at a time. Immediately after i.p. injection of psychedelic or entactogen drug, animals were placed in separate plastic boxes within a larger chamber (Home Depot—28 in. W×32 in. H×21.5 in. D), and HTR was measured for 10 minutes. A small lamp was placed in the back of the larger chamber, and a high-speed camera (Basler—Aca 1920-155 μm) was suspended from the ceiling to record video of the animals in the plastic boxes. […]

[15] = tested on: healthy adult subjects; assay: Methylone case series, Cohort 1: safety and tolerability of a single dosing session; format: in vivo, human; settings: Cohort 1, 4 healthy subjects, total oral dose 790 or 870 mg in one session
[16] = across oral doses of 50 mg to 200 mg

Q: Which results are given for CNC(C)C(=O)c1ccc2c(c1)OCO2 (centres unmarked) [methylone, 3,4-methylenedioxy-N-methylcathinone]?
A: locomotor activity (OFT) vs. vehicle ([1]; methylone 5 mg/kg): no effect; locomotor activity (OFT) vs. vehicle ([1]; methylone 15 or 30 mg/kg): significant increase in locomotor activity; time spent in the center of the open field vs. vehicle [1]: significantly increases the time spent in the center; time spent in the center of the open field vs. vehicle ([1]; listed as Methylone): significantly increased center time; half-life [2, 16]: 6 to 7 h; time to reach maximum concentrations (Tmax) [2, 16]: 1 to 2 h; AUC10 hr, geometric mean ([2]; oral 50 mg, N = 3): 725 ng·h/mL; Tmax, median ([2]; oral 50 mg, N = 3): 1.5 h; Cmax, geometric mean ([2]; oral 100 mg, N = 6): 283.9 ng/mL; Half-life, geometric mean ([2]; oral 100 mg, N = 6): 6.0 h; Tmax, median ([2]; oral 100 mg, N = 6): 2.5 h; AUC24 hr, geometric mean ([2]; oral 150 mg, N = 5): 3165 ng·h/mL; AUCinf, geometric mean ([2]; oral 150 mg, N = 5): 3509 ng·h/mL; Tmax, median ([2]; oral 150 mg, N = 5): 2 h; Half-life, geometric mean ([2]; oral 200 mg, N = 7): 6.5 h; Tmax, median ([2]; oral 200 mg, N = 7): 2 h; activity at 10 µM ([3]; CRHR1, Antagonist mode, 10 uM): 0.6%; activity at 1 µM ([3]; CRHR1, Antagonist, 1 uM): 1.3%; activity at 1 µM ([4]; 1 uM): 8.9%; activity at 10 µM ([4]; 10 uM): 5%; activity at 10 µM ([5]; Antagonist mode, 10 uM): 15.8%; activity at 1 µM ([5]; Antagonist, 1 uM): 17.8%; activity at 10 µM ([6]; VIPR1, Antagonist mode, 10 uM): 5.3%; activity at 1 µM ([6]; VIPR1, Antagonist, 1 uM): -0.7%; activity at 1 µM ([7]; CALCRL-RAMP1): 4.7%; activity at 10 µM ([7]; CALCRL-RAMP1): 7%; activity at 1 µM ([7]; CALCRL-RAMP2): 19.1%; activity at 10 µM ([7]; CALCRL-RAMP2): 7%; activity at 1 µM ([7]; CALCRL-RAMP3): -18.5%; activity at 10 µM ([7]; CALCRL-RAMP3): -7.5%; activity at 10 µM ([8]; GPR35, Antagonist mode, 10 uM): 7.3%; activity at 1 µM ([8]; GPR35, Antagonist, 1 uM): 13.2%; activity at 1 µM ([9]; 1 uM): 9.3%; activity at 10 µM ([9]; 10 uM): -1.6%; activity at 10 µM ([10]; NPBWR1, Antagonist mode, 10 uM): 25.1%; activity at 1 µM ([10]; NPBWR1, Antagonist, 1 uM): 17.1%; activity at 10 µM ([11]; P2RY1, Antagonist mode, 10 uM): 14.9%; activity at 1 µM ([11]; P2RY1, Antagonist, 1 uM): 14.5%; agonist % activity ([12]; 1 or 10 mM, threshold 30%): no agonist or antagonist activity; activity at 10 µM ([12]; HTR2C, Agonist mode, 10 uM): 3.7%; activity at 1 µM ([12]; HTR2C, Agonist, 1 uM): 1.4%; antagonist activity (% inhibition) ([13]; 1 or 10 mM, threshold 50%): no agonist or antagonist activity; activity at 10 µM ([13]; HTR2A, Antagonist mode, 10 uM): -2.7%; activity at 1 µM ([13]; HTR2A, Antagonist, 1 uM): -7.9%; head-twitch behaviors [14]: no effect on head-twitch behaviors at any dose tested; head-twitch behaviors ([14]; listed as Methylone): no hallucinogenic activity; adverse effects or after-effects [15]: no adverse effects or after-effects were observed or reported
